Where a SMILES comes first, the peptide text is derived from it. The star is where a group is joined. Cbz = O=C(OCc1ccccc1)*
What was measured:
Type in all cases: cell-based, human
[1] = tested on: proteasome activity in 2008/C*13 R cells; experiment: Proteasome activity assay (commercially available kit) on cell lysates; conditions: 48 h
[2] = tested on: MDA-7 protein in 2008 cells; experiment: Western blotting of MDA-7 protein expression; conditions: 48 h, vs Ad-mda7 alone
Protocol: FIG. 11. Inhibition of the proteasomal activity by MG132 results in increased ubiquitinated MDA-7 protein expression in CDDP-sensitive tumor cells but not in CDDP-resistant tumor cells. FIG. 11A, CDDP-resistant (2008/C*13 R) and sensitive (2008) ovarian tumor cells were plated in six-well plates and were treated with PBS, MG132, Ad-mda7, or Ad-mda7 plus MG132. At 48 h after treatment cells were harvested, lysates and supernatants prepared and subjected to MDA-7 and total ubiquitinated protein detection by western blotting and proteasome activity assay using commercially available kit. […] However, the MDA-7 protein was increased in 2008 cells when treated with MG132 plus Ad-mda7. […] FIG. 11B, CDDP-resistant (2008/C*13 R) and sensitive (2008) ovarian tumor cells were plated in six-well plates and were treated with PBS, MG132, Ad-p53, or Ad-p53 plus MG132. At 48 h after treatment cells were harvested, lysates and supernatants prepared and subjected to p53 protein detection by western blotting and proteasome activity using commercially available kit. […] However, the p53 protein was increased in 2008 cells when treated with MG132 plus Ad-p53.
FIG. 18. […] CDDP-sensitive (2008) ovarian tumor cells were plated in six-well plates. […]
FIG. 21. […] MDA-7 protein was detected in cells that were treated with Ad-mda7. […]

[3] = tested on: MDA-7 protein in 2008/C*13 R cells; experiment: Western blotting of MDA-7 protein expression; conditions: 48 h, vs Ad-mda7 alone
Protocol: FIG. 4. MDA-7 protein expression is increased in CDDP-Resistant Ovarian tumor cells in a time-dependent and dose-dependent manner. FIG. 4A, Ovarian tumor cells (2008 and 2008/C*13 R) seeded in six-well plates were treated with PBS, Ad-luc or Ad-mda7 (3000 vp/cell). Cells were harvested on day 1 and day 2 after treatment and analyzed for MDA-7 protein expression by western blotting. […] Beta-actin was used as an internal loading control. FIG. 4B, Ovarian tumor cells (2008 and 2008/C*13 R) seeded in six-well plates were treated with different doses of Ad-mda7 (1000, 3000, 5000 or 7500 vp/cell). Untreated cells served as control. Cells were harvested on day 2 after treatment and analyzed for MDA-7 protein expression by western blotting. […] Beta-actin was used as an internal loading control. […] However, MDA-7 protein was higher in the supernatant of Ad-mda7-treated 2008/C*13 R cells compared to Ad-mda7-treated 2008 cells.
FIG. 11. […]
MDA-7 Protein Expression is Increased in CDDP-Resistant Ovarian Tumor Cells in a Time-dependent and Dose-Dependent Manner. […] Cells were harvested on day 1 and day 2 after treatment and analyzed for MDA-7 protein expression by western blotting. […] Cells were harvested on day 2 after treatment and analyzed for MDA-7 protein expression by western blotting. […]

## CC(C)C[C@@H](C=O)NC(=O)[C@H](CC(C)C)NC(=O)[C@H](CC(C)C)NC(=O)OCc1ccccc1 [MG132] (Cbz-Leu-Leu-Leu-aldehyde)
[1]; FIG. 11A (Ad-mda7 experiment)
  inhibition of proteasome activity: 20%
[1]; FIG. 11B (Ad-p53 experiment)
  inhibition of proteasome activity: 20%
[2]
  MDA-7 protein expression with proteasome inhibitor: significantly increased
[3]
  MDA-7 protein expression with proteasome inhibitor: significantly increased
